Results as given in the supplement of paper PMC11451515.

Tested on: P12-Ichikawa
Assay: cell viability relative to DMSO control; higher = less cytotoxic
Conditions: 48 h
Method in brief: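 NOMO1 or SEM cells were plated at 500 cells/well and P12-Ichikawa cells at 1000 cells/well in 1536-well plates (5 μl), after each leukemia line had been adapted for at least four passages in each medium. Pin dosing delivered library compounds in DMSO at 11 threefold concentrations, 47 μM to 0.79 nM. CellTiter-Glo One luminescence was read after 48 h at 37°C. Viability is reported as a per-plate percentage of DMSO wells, with cell-free wells as background.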

[1] = HPLM + 10% dialyzed FBS, 0.000781 µM
[2] = HPLM + 10% dialyzed FBS, 0.00234 µM
[3] = HPLM + 10% dialyzed FBS, 0.00702 µM
[4] = HPLM + 10% dialyzed FBS, 0.0211 µM
[5] = HPLM + 10% dialyzed FBS, 0.0632 µM
[6] = HPLM + 10% dialyzed FBS, 0.19 µM
[7] = HPLM + 10% dialyzed FBS, 0.569 µM
[8] = HPLM + 10% dialyzed FBS, 1.71 µM
[9] = HPLM + 10% dialyzed FBS, 5.12 µM
[10] = HPLM + 10% dialyzed FBS, 15.4 µM
[11] = HPLM + 10% dialyzed FBS, 46.1 µM
[12] = RPMI 5 mM glucose + 10% FBS, 0.000781 µM
[13] = RPMI 5 mM glucose + 10% FBS, 0.00234 µM
[14] = RPMI 5 mM glucose + 10% FBS, 0.00702 µM
[15] = RPMI 5 mM glucose + 10% FBS, 0.0211 µM
[16] = RPMI 5 mM glucose + 10% FBS, 0.0632 µM
[17] = RPMI 5 mM glucose + 10% FBS, 0.19 µM
[18] = RPMI 5 mM glucose + 10% FBS, 0.569 µM
[19] = RPMI 5 mM glucose + 10% FBS, 1.71 µM
[20] = RPMI 5 mM glucose + 10% FBS, 5.12 µM
[21] = RPMI 5 mM glucose + 10% FBS, 15.4 µM
[22] = RPMI 5 mM glucose + 10% FBS, 46.1 µM
[23] = RPMI 5 mM glucose + 10% dialyzed FBS, 0.000781 µM
[24] = RPMI 5 mM glucose + 10% dialyzed FBS, 0.00234 µM
[25] = RPMI 5 mM glucose + 10% dialyzed FBS, 0.00702 µM
[26] = RPMI 5 mM glucose + 10% dialyzed FBS, 0.0211 µM
[27] = RPMI 5 mM glucose + 10% dialyzed FBS, 0.0632 µM
[28] = RPMI 5 mM glucose + 10% dialyzed FBS, 0.19 µM
[29] = RPMI 5 mM glucose + 10% dialyzed FBS, 0.569 µM
[30] = RPMI 5 mM glucose + 10% dialyzed FBS, 1.71 µM
[31] = RPMI 5 mM glucose + 10% dialyzed FBS, 5.12 µM
[32] = RPMI 5 mM glucose + 10% dialyzed FBS, 15.4 µM
[33] = RPMI 5 mM glucose + 10% dialyzed FBS, 46.1 µM

SMILES	cell viability [1]	cell viability [2]	cell viability [3]	cell viability [4]	cell viability [5]	cell viability [6]	cell viability [7]	cell viability [8]	cell viability [9]	cell viability [10]	cell viability [11]	cell viability [12]	cell viability [13]	cell viability [14]	cell viability [15]	cell viability [16]	cell viability [17]	cell viability [18]	cell viability [19]	cell viability [20]	cell viability [21]	cell viability [22]	cell viability [23]	cell viability [24]	cell viability [25]	cell viability [26]	cell viability [27]	cell viability [28]	cell viability [29]	cell viability [30]	cell viability [31]	cell viability [32]	cell viability [33]
COc1cc([C@@H](CC(=O)O)c2ccc(C)c(CN3C[C@@H](C)Oc4ccccc4[S+]3(=O)[O-])c2)cc2nnn(C)c12	108%	115%	114%	110%	109%	110%	115%	109%	96.6%	12.6%	10.5%	115%	114%	118%	106%	126%	113%	121%	111%	101%	84%	67.4%	114%	122%	115%	125%	114%	112%	116%	116%	104%	94.7%	70.7%
COc1ccc(C(CN(C)C)C2(O)CCCCC2)cc1 (centres undefined)	111%	106%	108%	107%	115%	114%	95.3%	96.5%	106%	98.2%	108%	116%	115%	134%	151%	120%	91.1%	81.8%	97%	106%	85.7%	109%	98.4%	111%	109%	103%	120%	106%	105%	106%	101%	91.5%	97.1%
CO[C@@]12[C@H](COC(N)=O)C/3=C(N1C[C@@H]4N[C@H]24)/C(=O)/C(=C(N)\C3=O)C	117%	123%	125%	126%	119%	116%	112%	121%	118%	118%	99.2%	–	–	–	–	–	–	–	–	–	–	–	–	–	–	–	–	–	–	–	–	–	–
Cc1cn([C@H]2C=C[C@@H](CO)O2)c(=O)[nH]c1=O	104%	114%	108%	108%	112%	103%	119%	103%	115%	116%	108%	100%	111%	107%	108%	105%	104%	112%	115%	108%	110%	98%	99.4%	101%	110%	105%	103%	101%	112%	108%	99.2%	107%	92.8%
Cc1nc2cc(C(=O)N3CCC4(CC3)CC(=O)c3c(cnn3C(C)C)C4)ccc2[nH]1	103%	121%	107%	120%	116%	119%	122%	110%	93.3%	112%	18%	–	–	–	–	–	–	–	–	–	–	–	–	–	–	–	–	–	–	–	–	–	–
OC1=CC=C(C=C1)\C2=C\OC3=C(C(=CC(=C3)O)O)C2=O	107%	114%	112%	118%	114%	116%	119%	118%	118%	117%	122%	103%	104%	116%	107%	116%	126%	116%	125%	115%	115%	85.9%	103%	105%	108%	112%	119%	114%	120%	116%	95%	113%	69.5%
COc1ccc(OC)c(-c2nnc3ccc(-c4ccc(OC)c(O[C@@H]5CCOC5)c4)nn23)c1	119%	118%	118%	126%	136%	117%	126%	132%	128%	124%	105%	–	–	–	–	–	–	–	–	–	–	–	–	–	–	–	–	–	–	–	–	–	–
O=C(CC12CC3CC(CC(C3)C1)C2)Nc1cccc2nc(NCCNCCO)ccc12	87.7%	88.7%	84.5%	90.8%	88.1%	91.2%	98.2%	88.1%	95.7%	92%	56.7%	84.7%	87.2%	85.6%	89.4%	88.8%	86.3%	87.4%	81.9%	89.2%	94.1%	57.6%	82%	86.6%	85.7%	99.4%	91.4%	94.8%	90.3%	85.8%	77.6%	93.8%	42.4%
CCC(C)N1\N=C/N(C1=O)C2=CC=C(C=C2)N3CCN(CC3)C4=CC=C(OC[C@H]5CO[C@@](C[N]6C=NC=N6)(O5)C7=CC=C(Cl)C=C7Cl)C=C4 (some centres undefined)	99.9%	109%	114%	120%	111%	115%	101%	101%	103%	98.8%	104%	111%	111%	119%	114%	108%	115%	115%	99.7%	108%	110%	97.2%	111%	113%	108%	111%	113%	111%	106%	105%	100%	98.5%	95.7%
COc1cc2ncn(-c3cc(OCc4ccccc4[S+](C)(=O)[O-])c(C#N)s3)c2cc1OC	101%	100%	93.8%	94%	102%	95.2%	96.7%	94.1%	84.5%	92%	77.5%	96.3%	99%	96.8%	97.8%	100%	95.3%	94.4%	89.7%	88.7%	91.3%	87.6%	90.1%	92.3%	87.7%	94.9%	94.8%	98%	95.4%	92.5%	82.7%	80%	73.6%
CC(NC(C)(C)C)C(=O)c1cccc(Cl)c1 (centres undefined)	114%	113%	117%	118%	117%	111%	120%	124%	122%	115%	115%	–	–	–	–	–	–	–	–	–	–	–	114%	127%	119%	123%	123%	128%	125%	124%	121%	118%	108%
CCc1cc2c(cc1N1CCC(N3CCOCC3)CC1)C(C)(C)c1[nH]c3cc(C#N)ccc3c1C2=O	100%	99.5%	110%	130%	138%	130%	131%	121%	116%	115%	65.3%	73.7%	73.3%	97.2%	134%	126%	124%	130%	100%	110%	107%	102%	86.2%	81.9%	108%	127%	136%	128%	125%	118%	109%	122%	96.5%
C[C@@H]1CN(Cc2ccc(F)cc2)[C@@H](C)CN1C(=O)c1cc2c(C(=O)C(=O)N(C)C)cn(C)c2cc1Cl	111%	118%	118%	128%	115%	123%	125%	125%	125%	125%	108%	110%	114%	111%	126%	122%	124%	132%	113%	124%	117%	107%	119%	132%	117%	124%	122%	130%	124%	127%	123%	118%	117%
CCC[S+](=O)([O-])Nc1ccc(F)c(C(=O)c2c[nH]c3ncc(Cl)cc23)c1F	110%	116%	109%	119%	112%	110%	99.8%	108%	103%	65.7%	44.2%	115%	115%	121%	116%	114%	115%	123%	113%	113%	85.6%	54.7%	118%	118%	119%	118%	120%	115%	111%	110%	99.8%	72.3%	44.2%
CCN(CC)CCOc1ccc(Cc2ccccc2)cc1	103%	104%	102%	101%	98.9%	103%	105%	95.4%	85.2%	29.8%	22.8%	101%	95.9%	95.1%	95.9%	99.4%	98.5%	102%	93%	85.7%	77.6%	79.3%	87.1%	96%	86.5%	97.8%	93.4%	89.8%	99.5%	93.1%	92%	52%	34.4%
Cc1nn(C)c(COc2ccc(N3CCN([S+](=O)([O-])N(C)C)CC3)cc2)c1-c1cccc2c(CCCOc3cccc4ccccc34)c(C(=O)O)n(CCN3CCOCC3)c12	92.3%	99.2%	97.4%	102%	103%	106%	107%	110%	29.9%	29.2%	28%	89.3%	107%	101%	97.7%	105%	107%	109%	113%	104%	109%	46.6%	87.5%	107%	104%	106%	112%	115%	120%	114%	96.1%	97.6%	36.7%
CN(C)C1=CC(=CC=C1)C\2=C\3C(=O)N(NC3=C/C(=O)N2C)C4=CC=CC=C4Cl	114%	112%	106%	111%	113%	95.8%	90.3%	10.8%	4.69%	4.7%	7.14%	113%	122%	116%	110%	117%	110%	103%	25.7%	9.73%	8.05%	15.8%	122%	114%	114%	112%	120%	109%	102%	41.3%	21.1%	16.6%	23.9%
